Key:
BI-2493 [1] = compound: T1, C[C@H]1CNCCN1c1nccc(-c2noc3c2CCC[C@@]32CCCc3sc(N)c(C#N)c32)n1 [BI-2493]; conditions: 5 days
Method: (§1)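 PRISM pooled barcoded cancer cell line viability screen (Broad Institute) with BI-2493 at 8 doses in threefold dilutions from 0.00457 to 10 µmol/L, 5-day treatment; curves fitted per cell line. IC50 is undefined (placeholder) for resistant lines. AUC is capped at 1, and sensitivity is reported as 1 − AUC.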

BI-2493 [2] = compound: T1, BI-2493; assay: 1 - AUC of viability dose-response curve (sensitivity) (fraction); higher = more sensitive; conditions: 5 days
Method: as §1

Test System	IC50 of cell viability (BI-2493 [1]) [µM]	1 - AUC of viability dose-response curve (BI-2493 [2])
HT29_LARGE_INTESTINE	5.08	0.15
C8166_HAEMATOPOIETIC_AND_LYMPHOID_TISSUE	9.65	0.00732
SKGII_ENDOMETRIUM	8.23	0.0529
OCIAML3_HAEMATOPOIETIC_AND_LYMPHOID_TISSUE	2.15	0.23
TC71_BONE	9.44	0.0115
RCK8_HAEMATOPOIETIC_AND_LYMPHOID_TISSUE	4.38	0.0825
EN_ENDOMETRIUM	9.54	0.0294
NCIH1703_LUNG	> 10	0.0509
HEC251_ENDOMETRIUM	3.15	0.282
ONCODG1_OVARY	8.36	0.0507
PF382_HAEMATOPOIETIC_AND_LYMPHOID_TISSUE	5.53	0.102
OCIM1_HAEMATOPOIETIC_AND_LYMPHOID_TISSUE	6.84	0.0683
CCK81_LARGE_INTESTINE	6.18	0.0958
MG63_BONE	9.09	0.0826
TGBC18TKB_LARGE_INTESTINE	9.22	0.103
JOPACA1_PANCREAS	4.96	0.107
SW620_LARGE_INTESTINE	1.1	0.313
SNU1196_BILIARY_TRACT	0.361	0.496
PACADD137_PANCREAS	8.11	0.104

Test System	IC50 of cell viability (BI-2493 [1]) [µM]	1 - AUC of viability dose-response curve (BI-2493 [2])
SNU899_UPPER_AERODIGESTIVE_TRACT	4.32	0.157
PK1_PANCREAS	6.81	0.131
HCC1419_BREAST	7.93	0.0762
SNU423_LIVER	3.81	0.152
A3KAW_HAEMATOPOIETIC_AND_LYMPHOID_TISSUE	3.54	0.191
G402_SOFT_TISSUE	4.25	0.117
PK45H_PANCREAS	4.3	0.168
MSTO211H_PLEURA	3.67	0.136
MHHNB11_AUTONOMIC_GANGLIA	4.36	0.177
A498_KIDNEY	5.88	0.113
HUG1N_STOMACH	0.544	0.393
SH10TC_STOMACH	4.52	0.125
HEPG2_LIVER	4.13	0.0929
CL11_LARGE_INTESTINE	5.92	0.117
C33A_CERVIX	3.53	0.131
HPAC_PANCREAS	1.1	0.312
KMCH1_BILIARY_TRACT	9.41	0.013
A101D_SKIN	8.09	0.0656
